“And” between values parts separate entries of the source, which are not always exact repeats. Equal values may be shown once. Read-outs that look alike come from different tables or passages of the source.

One data set concerns Alternaria solani. In words: In vivo preventive test on Alternaria solani (tomato). As to conditions: evaluated 7 days after inoculation. An excerpt: One day after this treatment, the plants are inoculated with an aqueous spore suspension of Alternaria solani.
For a further data set, the system named is Pyrenophora teres. Description: In vivo preventive test on Pyrenophora teres (barley). To be noted: 500 ppm of active ingredient, evaluated 7-9 days after inoculation. An excerpt: One day after this treatment, the plants are inoculated with an aqueous spore suspension of Pyrenophora teres.
Data set [1] is described as follows: logP by HPLC on reversed-phase column (C 18), EEC Directive 79/831 Annex V.A8. The format is physicochemical. The procedure:
In table 1, the logP values were determined in accordance with EEC Directive 79/831 Annex V.A8 by HPLC (High Performance Liquid Chromatography) on a reversed-phase column (C 18), using the method described below: Temperature: 40° C.; […]

Consider `COC(CNC(=O)c1cn(C)nc1C(F)F)c1ccc(Cl)cc1Cl` (stereo not shown) [1.02 from WO-2008/148570, N-[2-(2,4-dichlorophenyl)-2-methoxyethyl]-3-(difluoromethyl)-1-methyl-1H-pyrazole-4-carboxamide, reference compound], for which the Efficacy is recorded as 40% in the data set with Alternaria solani (100 ppm of active ingredient); “less than 40%” with Alternaria solani (100 ppm of active ingredient, listed as 1.02); 80% with Alternaria solani (500 ppm of active ingredient); “at least 80%” with Alternaria solani (500 ppm of active ingredient, listed as 1.02).
`CCN(CCc1ccc(Cl)cc1)C(=O)c1c(C(F)F)nn(C)c1Cl` [Example 57]: the Efficacy in the data set on Pyrenophora teres is 70%; in the data set on Alternaria solani (500 ppm of active ingredient), 80%. Moreover, in data set [1], the logP – broadly, the decadic logarithm of the partition coefficient of the neutral form, usually between octanol and water – came out at 3.35.
Consider `Cn1nc(C(F)F)c(C(=S)NC[Si](C)(C)c2ccc(Cl)cc2Cl)c1F` [Example 241], for which the Efficacy with Pyrenophora teres was found to be 100%. In data set [1], this compound showed a logP of 4.74.
As for `Cn1nc(C(F)F)c(C(=O)NCC(C)(C)c2cc(Cl)cc(Cl)c2)c1F` [Example 113], the Efficacy in the data set with Pyrenophora teres came to 90%; with Alternaria solani (500 ppm of active ingredient), 80%. In data set [1], this compound showed a logP of 3.87.
In data set [1], `Cn1nc(C(F)F)c(C(=O)NCCc2ccc(Cl)nc2)c1Cl` [Example 196] came in with a lipophilicity (logP) of 1.90.
Still for that read-out and setting: for `Cn1nc(C(F)F)c(C(=O)N(C[Si](C)(C)c2ccc3ccccc3c2)C2CC2)c1Cl` [Example 246] the value was 4.51; for `Cn1nc(C(F)F)c(C(=O)N(CCc2ccccc2)C2CCCC2)c1Cl` [Example 6], 3.89.
With `Cn1nc(C(F)F)c(C(=S)NCCc2ccc(Cl)cc2Cl)c1Cl` [Example 72], the Efficacy in the data set on Pyrenophora teres amounted to 100%; with Alternaria solani (500 ppm of active ingredient), 94%. The logP in data set [1] is 4.11.
As to `Cn1nc(C(F)F)c(C(=O)N(CCc2ccccc2)CC(F)(F)F)c1Cl` [Example 10], in data set [1], the log partition coefficient (logP) was found to be 3.39.
On the same count and under the same terms, the same measure for `COc1ccc(CCN(C(=O)c2c(C(F)F)nn(C)c2Cl)C2CCCCC2)cc1OC` [Example 132]: 3.53.
In data set [1], `Cn1nc(C(F)F)c(C(=O)NC(C)(C)Cc2cccc(Oc3ccccc3)c2)c1Cl` [Example 144] yielded a logP of 4.30. In the data set on Alternaria solani (500 ppm of active ingredient), this compound came in with an Efficacy of 95%.
As for `Cn1nc(C(F)F)c(C(=O)N(CCC#N)CCc2ccccc2)c1F` [Example 3], in data set [1], the logP amounted to 2.39.
Same read-out and setting: the same measure for `Cc1cc(C)c(CCN(C(=O)c2c(C(F)F)nn(C)c2F)C(C)C)c(C)c1` [Example 134]: 4.30; for `CC(C)N(CCc1ccccn1)C(=O)c1c(C(F)F)nn(C)c1Cl` [Example 182]: 1.00; for `COCCN(CCc1ccncc1)C(=O)c1c(C(F)F)nn(C)c1F` [Example 199]: 1.56.
For the compound `CCN(CCc1ccc(Cl)cc1)C(=S)c1c(C(F)F)nn(C)c1F` [Example 58], the Efficacy in the data set on Pyrenophora teres is given as 100%. Also, the lipophilicity (logP) in data set [1] came to 3.92.
Compound `CC(C)N(CCc1ccccc1)C(=O)c1c(C(F)F)nn(C)c1Cl` [Example 7] registered a logP in data set [1] of 3.35.
The same measure, in the same setting: for `Cn1nc(C(F)F)c(C(=O)NCCc2c(F)c(F)nc(F)c2F)c1Cl` [Example 209] the value was 2.60; for `COCCN(CCc1ccccn1)C(=O)c1c(C(F)F)nn(C)c1Cl` [Example 184], 0.63; for `CN(CCc1ccccn1)C(=O)c1c(C(F)F)nn(C)c1F` [Example 179], 1.47.
As for `Cn1nc(C(F)F)c(C(=O)NCC(C)(C)c2ccc(Cl)cc2)c1Cl` [Example 64], the logP in data set [1] stood at 3.58. In the data set on Alternaria solani (500 ppm of active ingredient), this compound gave an Efficacy of 100%.
Regarding `Cc1cccnc1CC(NC(=O)c1c(C(F)F)nn(C)c1Cl)C(F)(F)F` (stereo not shown) [Example 186], in data set [1], the logP is 1.70.
In the case of `Cn1nc(C(F)F)c(C(=O)NCCc2ccccc2Oc2ccccc2)c1Cl` [Example 141], the logP in data set [1] is on record as 3.64. In the data set on Alternaria solani (500 ppm of active ingredient), this compound came in with an Efficacy of 80%.
In turn, `Cn1nc(C(F)F)c(C(=O)N(CCc2ccccc2)C2CCCC2)c1F` [Example 1] yielded a lipophilicity (logP) in data set [1] of 3.69.
As to `Cn1nc(C(F)F)c(C(=O)N(CCc2ccccn2)C2CCCC2)c1F` [Example 176], the lipophilicity (logP) in data set [1] is 1.29.
Still for that read-out and setting: the same measure for `Cn1nc(C(F)F)c(C(=O)N(CCc2ccccn2)C2CCCC2)c1Cl` [Example 181]: 1.40.
The compound `Cn1nc(C(F)F)c(C(=O)NCC(C)(C)c2ccc(Oc3ccccc3)cc2)c1F` [Example 157] yielded an Efficacy in the data set with Pyrenophora teres of 80%. Also, the logP in data set [1] is given as 4.06.
Take `Cn1nc(C(F)F)c(C(=O)NC2CC2c2ccc(F)cc2)c1Cl` (stereo not shown) [Example 221]: the logP in data set [1] is on record as 2.75.
On to `Cc1cc(C)c(CCN(C)C(=O)c2c(C(F)F)nn(C)c2Cl)c(C)c1` [Example 137], for which the logP in data set [1] was 3.67. The Efficacy in the data set with Alternaria solani (500 ppm of active ingredient) is 90%.
For the compound `Cn1nc(C(F)F)c(C(=O)N(CCc2ccccn2)C2CCCCC2)c1F` [Example 175], the log partition coefficient (logP) in data set [1] stood at 1.48.
On the same count and under the same terms, the same measure for `Cn1nc(C(F)F)c(C(=O)NCC(C)(C)c2cccc(Oc3ccccc3)c2)c1Cl` [Example 149]: 4.15.
On to `Cn1nc(C(F)F)c(C(=S)N(C2CC2)C2CCCCC2(C)c2ccccc2)c1F` (mixture of isomers) [Example 219], for which the logP in data set [1] (HPLC on reversed-phase column (C 18), 40° C., 0.1% aqueous formic acid and acetonitrile, linear gradient 10% to 90% acetonitrile) is 5.01 and 5.11.
In turn, `Cn1nc(C(F)F)c(C(=O)NCCc2cccc(Oc3ccccc3)c2)c1Cl` [Example 145] yielded a log partition coefficient (logP) in data set [1] of 3.55. The same compound yielded an Efficacy in the data set on Alternaria solani (500 ppm of active ingredient) of 95%.
Compound `Cn1nc(C(F)F)c(C(=O)N(CCc2ccncc2)C2CCCC2)c1F` [Example 201] returned a logP in data set [1] of 1.20.
Still for that read-out and setting: for `Cn1nc(C(F)F)c(C(=O)N(CCc2ccccn2)C2CCCCC2)c1Cl` [Example 180] the value was 1.58; for `CN(CC(=O)c1ccc(Cl)cc1)C(=O)c1c(C(F)F)nn(C)c1Cl` [Example 62], 2.68.
In data set [1], `Cc1cc(C)c(CCN(C(=O)c2c(C(F)F)nn(C)c2Cl)C(C)C)c(C)c1` [Example 136] came in with a logP of 4.49.
In data set [1], `Cn1nc(C(F)F)c(C(=O)NCC(C)(C)c2ccccc2Cl)c1Cl` [Example 46] showed a logP of 3.48. The Efficacy in the data set on Alternaria solani (500 ppm of active ingredient) stood at 70%.
For `Cn1nc(C(F)F)c(C(=O)N(CCc2ccncc2)C2CCCC2)c1Cl` [Example 204], the logP in data set [1] turned out to be 1.32.
On the same count and under the same terms, the same measure for `CCN(C(=O)c1c(C(F)F)nn(C)c1Cl)C(C)C(=O)c1ccccc1` (stereo not shown) [Example 18]: 2.71.
Consider `Cn1nc(C(F)F)c(C(=O)N(CCc2ccccc2)CC(F)(F)F)c1F` [Example 5], for which the Efficacy in the data set on Pyrenophora teres turned out to be 80%. For the same compound, in data set [1], the log partition coefficient (logP) came out at 3.25.
On to `Cn1nc(C(F)F)c(C(=O)NC2CCCCC2c2ccccc2)c1F` (stereo not shown) [Example 213], for which, in data set [1], the log partition coefficient (logP) was 3.29. In addition, the Efficacy in the data set with Alternaria solani (500 ppm of active ingredient) is recorded as 89%.
On to `COCCN(CCc1ccccn1)C(=O)c1c(C(F)F)nn(C)c1F` [Example 177], for which, in data set [1], the logP was determined as 0.50.
Same read-out and setting: the same measure for `CC(C)N(CCc1ccccc1)C(=O)c1c(C(F)F)nn(C)c1F` [Example 2]: 3.19.
On to `Cn1nc(C(F)F)c(C(=O)NCC(C)(C)c2cccc(Oc3ccccc3)c2)c1F` [Example 148], for which, in data set [1], the logP is 3.92.
For `CN(CCc1ccccn1)C(=O)c1c(C(F)F)nn(C)c1Cl` [Example 183], the logP in data set [1] is reported as 1.63.
Same read-out and setting: the same measure for `Cn1nc(C(F)F)c(C(=O)NCC(C)(C)c2cccc(Cl)c2)c1Cl` [Example 54]: 3.53.
Still for that read-out and setting: the same measure for `COc1ccc(CCN(C)C(=O)c2c(C(F)F)nn(C)c2Cl)cc1OC` [Example 131]: 2.18.
`Cn1nc(C(F)F)c(C(=O)NCC(C)(C)c2ccc(Oc3ccccc3)cc2)c1Cl` [Example 158] returned a lipophilicity (logP) in data set [1] of 4.21. Further, the Efficacy in the data set with Alternaria solani (500 ppm of active ingredient) is 80%.
`CC(C)N(CCc1ccc(F)cc1)C(=O)c1c(C(F)F)nn(C)c1Cl` [Example 25] had a lipophilicity (logP) in data set [1] of 3.37.
In the data set with Pyrenophora teres, `Cn1nc(C(F)F)c(C(=S)NCC(C)(C)c2ccc(Cl)cc2Cl)c1Cl` [Example 89] returned an Efficacy of 100%. The same compound displayed a logP in data set [1] of 4.72.
For `Cn1nc(C(F)F)c(C(=O)NC2CC2c2cccc(F)c2)c1Cl` (stereo not shown) [Example 223], the logP in data set [1] came out at 2.75.
In the data set with Pyrenophora teres, `Cn1nc(C(F)F)c(C(=O)NCC(C)(C)c2cc(Cl)cc(Cl)c2)c1Cl` [Example 114] displayed an Efficacy of 80%. In addition, the logP in data set [1] is 4.01.
In data set [1], `Cn1nc(C(F)F)c(C(=O)N(CCc2ccncc2)C2CCCCC2)c1F` [Example 200] registered a lipophilicity (logP) of 1.39.
Same read-out and setting: for `COc1ccc(CCN(C(=O)c2c(C(F)F)nn(C)c2F)C2CCCCC2)cc1OC` [Example 130] the value was 3.42; for `Cn1nc(C(F)F)c(C(=O)NCCc2ccc(Cl)nc2)c1F` [Example 197], 1.78.
In the case of `Cn1nc(C(F)F)c(C(=O)N(CCc2ccncc2)C2CCCCC2)c1Cl` [Example 203], in data set [1], the lipophilicity (logP) is 1.50.
In turn, `CC(CN(C)C(=O)c1c(C(F)F)nn(C)c1F)c1ccncc1` (stereo not shown) [Example 206] registered a log partition coefficient (logP) in data set [1] of 1.60.
In data set [1], `CC(C)N(CCc1ccncc1)C(=O)c1c(C(F)F)nn(C)c1Cl` [Example 205] yielded a logP of 0.98.
In data set [1], `CC(C)N(CCc1ccncc1)C(=O)c1c(C(F)F)nn(C)c1F` [Example 198] showed a logP of 0.78.
Compound `Cn1nc(C(F)F)c(C(=O)NC2CC2c2ccccc2C(F)(F)F)c1Cl` (stereo not shown) [Example 226] registered a logP in data set [1] of 3.15.
Still for that read-out and setting: for `Cn1nc(C(F)F)c(C(=O)N(CCC#N)CCc2ccccc2)c1Cl` [Example 8] the value was 2.53; for `CC(C)N(CCc1ccccn1)C(=O)c1c(C(F)F)nn(C)c1F` [Example 178], 0.85.
The same measure, in the same setting: for `Cn1nc(C(F)F)c(C(=O)NC2CCCCC2c2ccccc2)c1Cl` (stereo not shown) [Example 214] the value was 3.33.
Still for that read-out and setting: the same measure for `CC(C)N(CCc1ccc(F)cc1)C(=O)c1c(C(F)F)nn(C)c1F` [Example 23]: 3.23.

(Values after patent US9232799B2, “N-[(het)arylethyl)] pyrazole(thio)carboxamides and their heterosubstituted analogues” (BAYER INTELLECTUAL PROPERTY GMBH, priority 2010, dated 2016).)
